Results taken from ChEMBL document CHEMBL5608235, “Tricyclic Benzo[1,3]oxazinyloxazolidinones as Potent Antibacterial Agents against Drug-Resistant Pathogens” (J Med Chem, 2024).
Values after ≈ are worked out from the molar mass of the structure shown. Active and inactive are the calls of the source. The rule behind the calls is not given here.

Key:
Staphylococcus aureus [1] = assay: Bacteriostatic activity against methicillin resistant Staphylococcus aureus ATCC 33592 at 4 times MIC incubated for 2 to 24 hrs by time-kill assay; format: functional, organism-based; conditions: time 2-24 hrs
[2] = MRT (0 to infinity) in BALB/c mouse at 10 mg/kg,po administration measured upto 24 hrs by LC-MS/MS analysis; format: ADME, organism-based; conditions: in vivo
[3] = tested on: Mycobacterium tuberculosis; assay: Antibacterial activity against Mycobacterium tuberculosis H37Rv assessed as inhibition of bacterial growth incubated for 7 days by alamar blue assay; format: functional; conditions: 168 h, time 7 day
Staphylococcus aureus [4] = assay: Antibacterial activity against vancomycin intermediate Staphylococcus aureus ATCC700699 assessed as inhibition of bacterial growth incubated for 7 days by alamar blue assay; format: functional; conditions: ATCC700699, 168 h, time 7 day
[5] = Metabolic stability in ICR mouse liver microsomes assessed as substrate remaining at 10 uM incubated for 60 mins in presence of NADPH by LC-MS/MS analysis; format: ADME, Microsome; conditions: read-out: Stability
Staphylococcus aureus [6] = assay: Inhibition of biofilm formation in methicillin resistant Staphylococcus aureus ATCC 33592 at 0.1 to 10 ug/ml incubated for 48 hrs by crystal violet staining based assay; format: functional, organism-based; conditions: dose 0.1-10 µg/ml
[7] = Cytotoxicity against African green monkey Vero cells incubated for 48 hrs by MTT assay; format: toxicity, cell-based, Chlorocebus sabaeus
Staphylococcus aureus [8] = assay: Antibacterial activity against methicillin resistant Staphylococcus aureus ATCC 33592 infected in cyclophosphamide-induced immunosuppressed Kunming mouse assessed as increase in lymphocytes at 25 to 50 mg/kg,po administration measured after 7 days by Giemsa staining based analysis; format: functional, organism-based; conditions: dose 25-50 mg/kg, time 7.0 day
Staphylococcus aureus [9] = assay: (§1) Antibacterial activity against methicillin resistant Staphylococcus aureus ATCC 33592 infected in cyclophosphamide-induced immunosuppressed Kunming mouse assessed as reduction of bacterial load in liver at 10 to 50 mg/kg,po administration measured after 24 hrs by hematoxylin and eosin staining based microscopy; format: functional, organism-based; conditions: dose 10-50 mg/kg
[10] = tested on: Staphylococcus epidermidis; assay: Antibacterial activity against Staphylococcus epidermidis ATCC12228 assessed as inhibition of bacterial growth incubated for 18 hrs by microdilution broth assay; format: functional
Cell membrane [11] = assay: Disruption of cell membrane integrity in methicillin resistant Staphylococcus aureus ATCC 33592 assessed as increase in blue fluorescence at 0.5 ug/ml incubated for 1 hr by […] and propidium iodide double staining based confocal microscopic analysis; format: cell membranes; conditions: dose 0.5 µg/ml
[12] = tested on: Staphylococcus epidermidis; assay: Antibacterial activity against methicillin resistant Staphylococcus epidermidis clinical isolate 20-2 assessed as inhibition of bacterial growth incubated for 7 days by alamar blue assay; format: functional; conditions: clinical isolate 20-2, 168 h, time 7 day
Staphylococcus aureus [13] = assay: as §1, with “reduction” for “reduction of bacterial load”, “inflammatory cell infiltration in lung” for “liver”; format: functional, organism-based; conditions: dose 10-50 mg/kg
Staphylococcus aureus [14] = assay: as §1, with “in inflammatory cell infiltration” for “of bacterial load”, “at” for “at 10 to”; format: functional, organism-based
[15] = Plasma protein binding in BALB/c mouse at 1 mg/kg,iv administration measured upto 24 hrs by LC-MS/MS analysis; format: ADME, organism-based; conditions: read-out: PPB (converted)
Staphylococcus aureus [16] = assay: as §1, with “reduction” for “reduction of bacterial load”, “histopathological change in heart” for “liver”; format: functional, organism-based; conditions: dose 10-50 mg/kg
Staphylococcus aureus [17] = assay: Antibacterial activity against vancomycin resistant Staphylococcus aureus assessed as inhibition of bacterial growth incubated for 7 days by alamar blue assay; format: functional; conditions: 168 h, time 7 day
Staphylococcus aureus [18] = assay: as §1, with “in” for “of”, “spleen” for “liver”; format: functional, organism-based; conditions: dose 10-50 mg/kg
Staphylococcus aureus [19] = assay: Inhibition of biofilm formation in Staphylococcus aureus ATCC 29213 at 1 to 10 ug/ml incubated for 48 hrs by crystal violet staining based assay; format: functional, organism-based; conditions: dose 1-10 µg/ml
[20] = Clearance in BALB/c mouse at 1 mg/kg,iv administration measured upto 24 hrs by LC-MS/MS analysis; format: ADME, organism-based; conditions: in vivo
Staphylococcus aureus [21] = assay: as §1, with “in” for “of”, “lung” for “liver”; format: functional, organism-based; conditions: dose 10-50 mg/kg
Staphylococcus aureus [22] = assay: Antibacterial activity against Linezolid resistant Staphylococcus aureus clinical isolate 20-1 assessed as inhibition of bacterial growth incubated for 7 days by alamar blue assay; format: functional; conditions: clinical isolate 20-1, 168 h, time 7 day
[23] = AUC (0 to t) in BALB/c mouse at 1 mg/kg,iv administration measured upto 24 hrs by LC-MS/MS analysis; format: ADME, organism-based; conditions: in vivo
[24] = Terminal half life in BALB/c mouse at 10 mg/kg,po administration measured upto 24 hrs by LC-MS/MS analysis; format: ADME, organism-based; conditions: in vivo, read-out: beta t1/2 (converted)
Staphylococcus aureus [25] = assay: Antibacterial activity against methicillin resistant Staphylococcus aureus clinical isolate 20-2 assessed as inhibition of bacterial growth incubated for 7 days by alamar blue assay; format: functional; conditions: clinical isolate 20-2, 168 h, time 7 day
Cell membrane [26] = assay: Disruption of cell membrane in methicillin resistant Staphylococcus aureus ATCC 33592 assessed as cell shrinkage at 0.5 ug/ml incubated for 6 hrs by Scanning electron microscopic analysis; format: cell membranes; conditions: dose 0.5 µg/ml
Staphylococcus aureus [27] = assay: Inhibition of protein synthesis in Staphylococcus aureus ATCC 29213 by translation assay; format: functional, organism-based
Cell membrane [28] = assay: Disruption of cell membrane integrity in Staphylococcus aureus ATCC 25923 assessed as increase in blue fluorescence at 0.5 ug/ml incubated for 1 hr by […] and propidium iodide double staining based confocal microscopic analysis; format: cell membranes; conditions: dose 0.5 µg/ml
[29] = Volume of distribution in BALB/c mouse at 1 mg/kg,iv administration measured upto 24 hrs by LC-MS/MS analysis; format: ADME, organism-based; conditions: in vivo
Staphylococcus aureus [30] = assay: Antibacterial activity against methicillin resistant Staphylococcus aureus ATCC 33592 infected in cyclophosphamide-induced immunosuppressed Kunming mouse assessed as decrease in IL-1beta level at po administration measured after 24 hrs by ELISA; format: functional, organism-based
Cell membrane [31] = assay: Disruption of cell membrane integrity in Staphylococcus aureus ATCC 25923 assessed as increase in blue fluorescence at 1 ug/ml incubated for 1 hr by […] and propidium iodide double staining based confocal microscopic analysis; format: cell membranes; conditions: dose 1.0 µg/ml
Enterococcus = assay: Antibacterial activity against vancomycin resistant Enterococcus clinical isolate 20-1 assessed as inhibition of bacterial growth incubated for 7 days by alamar blue assay; format: functional; conditions: clinical isolate 20-1, 168 h, time 7 day
Staphylococcus aureus [32] = assay: Antibacterial activity against methicillin resistant Staphylococcus aureus ATCC 33592 infected in cyclophosphamide-induced immunosuppressed Kunming mouse assessed as decrease in TNF-alpha level at po administration measured after 24 hrs by ELISA; format: functional, organism-based
Staphylococcus aureus [33] = assay: Antibacterial activity against methicillin resistant Staphylococcus aureus ATCC 33592 infected in cyclophosphamide-induced immunosuppressed Kunming mouse assessed as decrease in IL-6 level at po administration measured after 24 hrs by ELISA; format: functional, organism-based
Staphylococcus aureus [34] = assay: Bacteriostatic activity against methicillin resistant Staphylococcus aureus ATCC 33592 at 1 times MIC incubated for 2 to 24 hrs by time-kill assay; format: functional, organism-based; conditions: time 2-24 hrs
[35] = Terminal half life in BALB/c mouse at 1 mg/kg,iv administration measured upto 24 hrs by LC-MS/MS analysis; format: ADME, organism-based; conditions: in vivo, read-out: beta t1/2 (converted)
Enterococcus faecalis = assay: Antibacterial activity against Enterococcus faecalis ATCC29212 assessed as inhibition of bacterial growth incubated for 18 hrs by microdilution broth assay; format: functional

CC(=O)NC[C@@H]1OC(=O)N2Cc3cc(-c4ccc(C#N)cc4)c(F)cc3O[C@@H]12
Activity (Staphylococcus aureus [1]): Active
MRT inf [2]: 17.3 h
MIC [3]: 0.52 µg/mL (≈ 1.36 µM)
MIC (Staphylococcus aureus [4]): 0.5 µg/mL (≈ 1.31 µM)
remaining at 1 h, 10 µM [5]: 100%
inhibition (Staphylococcus aureus [6]): Active
IC50 at 48 h [7]: 35 µg/mL (≈ 91.8 µM)
Activity (Staphylococcus aureus [8]): Active
Activity (Staphylococcus aureus [9]): Active
MIC [10]: 0.032 µg/mL (≈ 0.0839 µM)
Activity (Cell membrane [11]): Active
MIC [12]: 0.06 µg/mL (≈ 0.157 µM)
Activity (Staphylococcus aureus [13]): Active
Activity (Staphylococcus aureus [14]): Active
fraction unbound at 24 h [15]: 0.239
Activity (Staphylococcus aureus [16]): Active
MIC (Staphylococcus aureus [17]): 1 µg/mL (≈ 2.62 µM)
Activity (Staphylococcus aureus [18]): Active
inhibition (Staphylococcus aureus [19]): Active
clearance [20]: 2.92 mL/min/kg
Activity (Staphylococcus aureus [21]): Active
MIC (Staphylococcus aureus [22]): 8 µg/mL (≈ 21 µM)
AUC(0-t) at 24 h [23]: 5120 ng·h/mL
half-life [24]: 11.9 h
MIC (Staphylococcus aureus [25]): 0.5 µg/mL (≈ 1.31 µM)
Activity (Cell membrane [26]): Active
IC50 (Staphylococcus aureus [27]): 1.5 µg/mL (≈ 3.93 µM)
Activity (Cell membrane [28]): Active
Vd [29]: 1.94 L/kg
Activity (Staphylococcus aureus [30]): Dose-Dependent Effect
Activity (Cell membrane [31]): Active
MIC (Enterococcus): 0.5 µg/mL (≈ 1.31 µM)
Activity (Staphylococcus aureus [32]): Dose-Dependent Effect
Activity (Staphylococcus aureus [33]): Dose-Dependent Effect
Activity (Staphylococcus aureus [34]): Active
half-life [35]: 7.9 h
MIC (Enterococcus faecalis): 1 µg/mL (≈ 2.62 µM)
